Measurements: ChEMBL document CHEMBL5154822, “Novel inhibitors of AChE and Aβ aggregation with neuroprotective properties as lead compounds for the treatment of Alzheimer's disease” (Eur J Med Chem, 2022)
pIC50: −log10 of the molar value. Activity calls are given as the source filed them. The calls are words filed in the database; no cut-off is given here.

Tests used:
[1] = target: T1, Acetylcholinesterase (Mus musculus, UniProt P21836); assay: Inhibition of AChE in mouse cerebral cortex using acetylthiocholine iodide as substrate preincubated for 10 mins followed by substrate addition and measured for 180 secs by Ellman's spectrophotometric method; type: tissue-based
T1 sequence (P21836 whole entry): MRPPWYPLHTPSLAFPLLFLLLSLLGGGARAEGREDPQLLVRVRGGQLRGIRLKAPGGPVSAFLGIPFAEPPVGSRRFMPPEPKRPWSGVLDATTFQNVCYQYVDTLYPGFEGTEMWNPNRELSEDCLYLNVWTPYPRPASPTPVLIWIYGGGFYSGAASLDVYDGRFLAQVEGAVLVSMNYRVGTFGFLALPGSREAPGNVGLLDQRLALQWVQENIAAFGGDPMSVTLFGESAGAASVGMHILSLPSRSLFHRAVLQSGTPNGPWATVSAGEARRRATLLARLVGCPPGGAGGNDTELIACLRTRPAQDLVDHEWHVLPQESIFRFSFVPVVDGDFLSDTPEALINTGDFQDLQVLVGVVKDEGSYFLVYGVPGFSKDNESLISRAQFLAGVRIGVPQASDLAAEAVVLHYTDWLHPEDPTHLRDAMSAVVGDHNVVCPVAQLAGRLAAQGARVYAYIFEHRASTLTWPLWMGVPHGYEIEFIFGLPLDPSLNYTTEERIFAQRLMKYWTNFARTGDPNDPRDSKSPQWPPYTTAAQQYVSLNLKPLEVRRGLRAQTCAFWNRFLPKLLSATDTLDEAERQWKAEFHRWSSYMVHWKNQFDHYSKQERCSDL

[2] = target: Cytochrome P450 2C9 (Homo sapiens, UniProt P11712); assay: Inhibition of CYP2C9 in human liver microsomes using diclofenac as substrate preincubated for 10 mins followed by NADPH addition and measured after 10 mins by LC-MS/MS analysis; type: ADME, Microsome
Sequence of Cytochrome P450 2C9 (P11712 whole entry): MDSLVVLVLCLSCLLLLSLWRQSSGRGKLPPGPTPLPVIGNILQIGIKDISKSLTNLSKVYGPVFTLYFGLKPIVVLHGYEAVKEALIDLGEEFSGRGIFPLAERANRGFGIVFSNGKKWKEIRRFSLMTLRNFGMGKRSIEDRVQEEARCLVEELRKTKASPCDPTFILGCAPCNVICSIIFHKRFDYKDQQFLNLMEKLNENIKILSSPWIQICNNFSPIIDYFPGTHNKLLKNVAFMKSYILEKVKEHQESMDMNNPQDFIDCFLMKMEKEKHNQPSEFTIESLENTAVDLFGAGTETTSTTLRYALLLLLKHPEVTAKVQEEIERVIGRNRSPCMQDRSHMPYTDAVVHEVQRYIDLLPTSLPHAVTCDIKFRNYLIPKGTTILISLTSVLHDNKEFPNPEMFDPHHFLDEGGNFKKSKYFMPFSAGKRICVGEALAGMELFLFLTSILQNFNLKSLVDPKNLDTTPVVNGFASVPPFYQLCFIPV

[3] = target: Cytochrome P450 2D6 (Homo sapiens, UniProt P10635); assay: Inhibition of CYP2D6 in human liver microsomes using dextromethorphan as substrate preincubated for 10 mins followed by NADPH addition and measured after 10 mins by LC-MS/MS analysis; type: ADME, Microsome
Sequence of Cytochrome P450 2D6 (P10635 whole entry): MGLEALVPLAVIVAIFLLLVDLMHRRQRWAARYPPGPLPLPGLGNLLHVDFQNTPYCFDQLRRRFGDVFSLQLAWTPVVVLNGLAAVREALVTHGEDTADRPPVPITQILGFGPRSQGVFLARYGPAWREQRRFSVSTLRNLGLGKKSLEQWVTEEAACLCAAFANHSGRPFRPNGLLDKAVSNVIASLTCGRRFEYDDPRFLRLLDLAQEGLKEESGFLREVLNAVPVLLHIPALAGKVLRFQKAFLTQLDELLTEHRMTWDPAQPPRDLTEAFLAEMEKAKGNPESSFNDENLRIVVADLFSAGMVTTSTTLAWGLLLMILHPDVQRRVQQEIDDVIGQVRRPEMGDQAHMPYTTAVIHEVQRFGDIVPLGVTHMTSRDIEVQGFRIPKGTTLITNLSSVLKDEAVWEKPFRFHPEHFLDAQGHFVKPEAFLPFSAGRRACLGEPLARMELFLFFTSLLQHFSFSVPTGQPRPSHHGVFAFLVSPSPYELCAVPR

[4] = Inhibition of CYP3A4 in human liver microsomes using midazolam as substrate preincubated for 10 mins followed by NADPH addition and measured after 10 mins by LC-MS/MS analysis; type: ADME, Microsome
[5] = Inhibition of CYP3A4 in human liver microsomes using testosterone as substrate preincubated for 10 mins followed by NADPH addition and measured after 10 mins by LC-MS/MS analysis; type: ADME, Microsome
[6] = target: Acetylcholinesterase (Homo sapiens) (UniProt P22303); assay: Inhibition of AChE in glyceraldehyde-exposed human SH-SY5Y differentiated neuronal cells using acetylthiocholine as substrate at 50 nM by Ellman's spectrophotometric method; type: cell-based
Sequence of Acetylcholinesterase (Homo sapiens) (P22303 whole entry): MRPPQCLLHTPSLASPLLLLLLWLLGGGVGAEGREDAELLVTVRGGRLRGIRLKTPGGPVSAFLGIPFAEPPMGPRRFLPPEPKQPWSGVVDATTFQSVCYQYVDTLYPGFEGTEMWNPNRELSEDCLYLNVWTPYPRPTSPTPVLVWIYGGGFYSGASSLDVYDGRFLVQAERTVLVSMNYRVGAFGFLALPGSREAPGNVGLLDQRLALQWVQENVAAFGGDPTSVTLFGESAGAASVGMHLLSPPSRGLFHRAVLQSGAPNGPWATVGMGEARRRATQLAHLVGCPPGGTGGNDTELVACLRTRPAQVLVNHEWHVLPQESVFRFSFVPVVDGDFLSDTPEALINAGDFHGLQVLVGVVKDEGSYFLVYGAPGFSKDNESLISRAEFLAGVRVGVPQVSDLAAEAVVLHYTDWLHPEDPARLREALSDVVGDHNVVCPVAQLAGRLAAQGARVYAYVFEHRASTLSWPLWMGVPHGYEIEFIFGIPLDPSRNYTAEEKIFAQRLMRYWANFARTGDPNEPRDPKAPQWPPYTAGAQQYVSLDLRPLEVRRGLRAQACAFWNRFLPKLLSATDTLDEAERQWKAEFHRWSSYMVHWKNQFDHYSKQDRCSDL

[7] = target: Acetylcholinesterase (Homo sapiens) (UniProt P22303); assay: Inhibition of AChE in human SH-SY5Y differentiated neuronal cells assessed as inhibition of GA-induced tau hyperphosphorylation at Ser396 residue at 10 nM by ELISA; type: cell-based
[8] = tested on: SH-SY5Y; assay: Neuroprotective activity in human SH-SY5Y differentiated neuronal cells assessed as inhibition of GA-induced neurite shortening by measuring increase in axon length at 0.5 uM by laser confocal microscope; type: functional, cell-based
[9] = tested on: SH-SY5Y; assay: Neuroprotective activity in human SH-SY5Y differentiated neuronal cells assessed as inhibition of GA-induced axon morphology defects at 0.5 uM by laser confocal microscope; type: functional, cell-based
[10] = tested on: SH-SY5Y; assay: Neuroprotective activity in human SH-SY5Y differentiated neuronal cells assessed as inhibition of GA-induced neurite shortening by measuring increase in axon length at 5 uM by laser confocal microscope; type: functional, cell-based
[11] = tested on: SH-SY5Y; assay: Neuroprotective activity in human SH-SY5Y differentiated neuronal cells assessed as inhibition of GA-induced axon morphology defects at 5 uM by laser confocal microscope; type: functional, cell-based
[12] = tested on: SH-SY5Y; assay: Neuroprotective activity in human SH-SY5Y differentiated neuronal cells assessed as inhibition of GA-induced cell death by measuring increase in cell viability at 0.5 to 5 uM measured after 24 hrs by MTT assay; type: functional, cell-based; conditions: dose 0.5-5 µM
[13] = tested on: SH-SY5Y; assay: Antioxidant activity against okadaic acid-induced ROS generation in human SH-SY5Y cells assessed as reduction in DCF fluorescence intensity at 5 uM pretreated for 24 hrs followed by okadaic acid addition for 24 hrs by DCFH-DA dye based fluorescence analysis; type: functional, cell-based; conditions: time 48.0 hrs
[14] = tested on: SH-SY5Y; assay: Neuroprotective activity in human SH-SY5Y cells assessed as inhibition of okadaic acid-induced mitochondrial dysfunction by measuring increase in red-to-green fluorescence intensity ratio pretreated for 24 hrs followed by okadaic acid addition for 24 hrs by JC-1 dye based fluorescence analysis; type: functional, cell-based; conditions: dose 0.5-5 µM, time 48.0 hrs, DDE = dose-dependent effect
[15] = tested on: Mus musculus; assay: In vivo inhibition of AChE in ig dosed ICR mouse cerebral cortex using acetylthiocholine iodide as substrate and measured after 1 hr by microplate reader analysis; type: functional, organism-based; conditions: dose 1-4 mg/kg, DDE = dose-dependent effect
[16] = tested on: Mus musculus; assay: In vivo inhibition of AChE in ig dosed ICR mouse hippocampus using acetylthiocholine iodide as substrate and measured after 1 hr by microplate reader analysis; type: functional, organism-based; conditions: dose 1-4 mg/kg, DDE = dose-dependent effect
[17] = tested on: Mus musculus; assay: In vivo inhibition of AChE in ICR mouse cerebral cortex using acetylthiocholine iodide as substrate at 4 mg/kg, ig measured after 1 hr by microplate reader analysis; type: functional, organism-based
[18] = tested on: Mus musculus; assay: In vivo inhibition of AChE in ICR mouse hippocampus using acetylthiocholine iodide as substrate at 4 mg/kg, ig measured after 1 hr by microplate reader analysis; type: functional, organism-based
[19] = tested on: Mus musculus; assay: Antialzheimer activity against scopolamine-induced cognitive deficit ICR mouse model assessed as improvement in memory impairment by measuring reduction in number of errors at 0.1 to 0.3 mg/kg, ig by step-through passive avoidance test; type: functional, organism-based; conditions: dose 0.1-0.3 mg/kg
[20] = Cytotoxicity against human SH-SY5Y cells assessed as maximum non-cytotoxic concentration by CellTiter-Glo luminescent assay; type: toxicity, cell-based; conditions: read-out: MNCC
[21] = tested on: Mus musculus; assay: In vivo inhibition of AChE in ICR mouse cerebral cortex using acetylthiocholine iodide as substrate at 10 mg/kg, ig measured after 1 hr by microplate reader analysis; type: functional, organism-based
[22] = tested on: Mus musculus; assay: In vivo inhibition of AChE in ICR mouse hippocampus using acetylthiocholine iodide as substrate at 10 mg/kg, ig measured after 1 hr by microplate reader analysis; type: functional, organism-based
[23] = tested on: Mus musculus; assay: Antialzheimer activity against scopolamine-induced cognitive deficit ICR mouse model assessed as improvement in memory impairment by measuring reduction in number of errors at 5 mg/kg, ig by step-through passive avoidance test; type: functional, organism-based

Question: With `COc1cc2c(cc1OC)S(=O)(=O)C(CC1CCN(Cc3ccc(F)cc3)CC1)C2` (stereo not given) as the compound, how does the pIC50 [1] read?
Answer: Its pIC50 is 7.95.

Question: With `COc1cc2c(cc1OC)S(=O)(=O)C(CC1(F)CCN(Cc3ccccc3C(F)(F)F)CC1)C2` (stereo not given) as the compound, how does the pIC50 [1] read?
Answer: Its pIC50 is 5.52.

Question: With `COc1cc2c(cc1OC)S(=O)(=O)C(F)(CC1CCN(Cc3cccc(F)c3)CC1)C2` (stereo not given) [listing 1 of 2 here] as the compound, how does the pIC50 [2] read?
Answer: Its pIC50 is < 4.70.

Question: What about the pIC50 [3] of the same compound?
Answer: Its pIC50 is < 4.70.

Question: And the pIC50 [4]?
Answer: The pIC50 was < 4.70.

Question: And the pIC50 [5]?
Answer: The pIC50 was < 4.70.

Question: With `COc1cc2c(cc1OC)S(=O)(=O)C(CC1CCN(Cc3ccccc3F)CC1)C2` (stereo not given) as the compound, how does the pIC50 [1] read?
Answer: Its pIC50 is 7.94.

Question: For `COc1cc2c(cc1OC)S(=O)(=O)C(F)(CC1CCN(Cc3cccc(F)c3)CC1)C2` (stereo not given) [listing 2 of 2 here], which inhibition [6] is on record?
Answer: The inhibition was “Active”.

Question: What about the inhibition [7] of the same compound?
Answer: The inhibition was “Active”.

Question: What about the Activity [8] of the same compound?
Answer: The Activity was “Active”.

Question: What about the Activity [9] of the same compound?
Answer: The Activity was “Active”.

Question: What about the Activity [10] of the same compound?
Answer: The Activity was “Active”.

Question: What about the Activity [11] of the same compound?
Answer: The Activity was “Active”.

Question: And the Activity [12]?
Answer: The Activity was “Active”.

Question: What about the Activity [13] of the same compound?
Answer: Its Activity is “Active”.

Question: And the Activity [14]?
Answer: The Activity was “Dde”.

Question: What about the inhibition [15] of the same compound?
Answer: Its inhibition is “Dde”.

Question: And the inhibition [16]?
Answer: The inhibition was “Dde”.

Question: And the inhibition [17]?
Answer: The inhibition was “Active”.

Question: What about the inhibition [18] of the same compound?
Answer: The inhibition was “Active”.

Question: What about the Activity [19] of the same compound?
Answer: Its Activity is “Active”.

Question: With `COc1ccc(S(=O)(=O)/C(Cl)=C/C2CCN(Cc3ccccc3)CC2)cc1OC` as the compound, how does the pIC50 [1] read?
Answer: Its pIC50 is 6.47.

Question: With `COc1cc2c(cc1OC)S(=O)(=O)/C(=C/C1CCN(Cc3ccccc3)CC1)CC2` as the compound, how does the pIC50 [1] read?
Answer: Its pIC50 is 5.74.

Question: With `COc1cc2c(cc1OC)S(=O)(=O)/C(=C\C1CCN(Cc3ccccc3)CC1)C2` as the compound, how does the pIC50 [1] read?
Answer: Its pIC50 is 7.95.

Question: With `CO/C(=C\C1CCN(Cc2ccccc2)CC1)S(=O)(=O)c1ccc(OC)c(OC)c1` as the compound, how does the pIC50 [1] read?
Answer: The pIC50 was 5.07.

Question: With `COc1cc2c(cc1OC)S(=O)(=O)C(CC1(F)CCN(Cc3ccc(F)c(Cl)c3)CC1)C2` (stereo not given) as the compound, how does the pIC50 [1] read?
Answer: Its pIC50 is 7.89.

Question: With `COc1cc2c(cc1OC)S(=O)(=O)C(CC1(F)CCN(Cc3ccc(F)cc3)CC1)C2` (stereo not given) as the compound, how does the pIC50 [1] read?
Answer: Its pIC50 is 7.95.

Question: With `COc1cc2c(cc1OC)C(=O)C(CC1CCN(Cc3ccccc3)CC1)C2` (stereo not given) [DONEPEZIL] as the compound, how does the MNTC [20] read?
Answer: Its MNTC is 100 µM.

Question: What about the Activity [8] of the same compound?
Answer: Its Activity is “Active”.

Question: And the Activity [9]?
Answer: The Activity was “Active”.

Question: And the Activity [12]?
Answer: The Activity was “Active”.

Question: And the Activity [13]?
Answer: The Activity was “Active”.

Question: And the Activity [14]?
Answer: The Activity was “Dde”.

Question: And the inhibition [21]?
Answer: The inhibition was “Active”.

Question: What about the inhibition [22] of the same compound?
Answer: Its inhibition is “Active”.

Question: And the Activity [23]?
Answer: Its Activity is “Active”.

Question: With `COc1ccc(S(=O)(=O)/C=C/C2CCN(Cc3ccccc3)CC2)cc1OC` as the compound, how does the pIC50 [1] read?
Answer: Its pIC50 is 7.17.

Question: With `COc1cc2c(cc1OC)S(=O)(=O)C(CC1(F)CCN(Cc3ccccc3F)CC1)C2` (stereo not given) as the compound, how does the pIC50 [1] read?
Answer: The pIC50 was 8.07.

Question: With `COc1cc2c(cc1OC)S(=O)(=O)C(CC1CCN(Cc3cccc(F)c3)CC1)C2` (stereo not given) as the compound, how does the pIC50 [1] read?
Answer: The pIC50 was 8.36.

Question: With `COc1cc2c(cc1OC)S(=O)(=O)C(CC1(F)CCN(Cc3ccccc3)CC1)C2` (stereo not given) as the compound, how does the pIC50 [1] read?
Answer: The pIC50 was 8.39.
